These results are taken from a melting point compilation (Tetko et al.; mined from patent text by program, amines drawn as free bases though some values may be those of a salt).

Take `ON=Cc1cc2c(cn1)[nH]c1ccccc12`: the melting point lay in the range of 157 to 159 °C. Under `CCOC(=O)Nc1ccc2oc(Cc3ccccc3)cc2c1` stands 95 °C; under `CN(c1cccc2cc(C(=O)NCC(C)(CN3CCOCC3)SCc3ccccc3)[nH]c12)S(=O)(=O)c1cccs1` (centres undefined), 150 to 152 °C; under `C=CCN1CCN(C2N=C(N)OC2C)CC1` (centres undefined), 99 °C.

The compound `CCOC(=O)c1cn(CCc2cccc(F)c2)c2cc(C3CC3)nn2c1=O` gave a melting point of 160 to 165 °C. In the case of `O=C(c1cccs1)c1cnn2c(-c3cccc(NCc4ccco4)c3)ccnc12`, the melting point is 124 to 128 °C. `COC(=O)CCn1c(=O)n(CCCCCN2CCN(c3cccc(C(F)(F)F)c3)CC2)c(=O)c2cscc21` registered a melting point of 99.5 to 101 °C. As for `COc1ccccc(NS(=O)(=O)c2ccc(C)cc2)c1=O`, the melting point was in the range of 163 to 164 °C. As for `Cc1noc(C)c1-c1ccnc2[nH]c(-c3cn(C)c4ccc(C(=O)O)cc34)cc12`, the melting point was above 305 °C. Under `CC(C)(C)C(O)(CC(Br)=CBr)Cn1cncn1` (centres undefined) stands 81 °C; under `CS(=O)(=O)Nc1cccc(Nc2nc(NC3CCC3)c3nc[nH]c3n2)c1`, 142 to 146 °C; under `CCCCCCCCCCCCCCCCCc1nnc(CO)n1-c1sc(CC)cc1C(=O)c1ccc(C)cc1`, 68 to 69 °C. Under `C/C=C/C(=O)NCCn1c(CCCC)nc2c(N)nc3cccnc3c21` stands 198 to 200 °C. On to `O=C(Oc1ccccc1)N1CCC(Oc2ccc(F)cc2)CC1`, for which the melting point was 98.5 to 100 °C. The compound `CC(C)n1nc(-c2sc(C(N)=S)nc2-c2ccccc2)ccc1=O` came in with a melting point above 250 °C. `C(=Cc1ccc(-c2nc(-c3ccccc3)no2)cc1)c1ccc(-c2nc3ccccn3n2)cc1` showed a melting point of 287 °C.

Regarding `CN1CCOc2ccc(S(=O)(=O)n3c(Cc4ccc(C(=O)O)s4)cc4cc(C(F)(F)F)ccc43)cc21`, the melting point lay in the range of 120 to 144 °C.

Regarding `CCOC(=O)CSc1nnsc1-c1ccc(C(C)(C)C)cc1`, the melting point is 62.5 to 63.5 °C. Under `Nc1n[nH]c2c(F)c(F)ccc12` stands 183 °C; under `O=C(c1ccc(Cl)cc1)c1ccc(CSC(F)(F)F)cc1`, 63 to 65 °C; under `CN1CCC2(CC1)SC(c1ccc(Cl)cc1)c1ccccc12` (centres undefined), 121 to 123 °C.

Compound `CC(=O)Nc1c(CC(=O)O)cccc1C(=O)c1ccccc1` returned a melting point of 188 to 190 °C.

`Cc1noc(=O)c2ccc(NC(=O)C(=O)CC3(c4cccc(C(F)(F)F)c4)CC3)cc12` displayed a melting point of 136 to 139 °C. The same measure for `CCN(CC)CCOc1ccc(Nc2ncc3c(n2)N(C)C(=O)N(C(C)(C)C)C3)cc1`: 130 °C; for `CCOC(=O)COc1c2c3c(ccnc3c3ccccc13)CCC2`: 70 °C; for `CC(C(=O)O)c1ccc2cc(OCc3ccc4ccccc4c3)ccc2c1` (centres undefined): 216 to 218 °C. The same measure for `Oc1ccc(-c2nn(C3CCCC3)c3c(C(F)(F)F)cccc23)c(O)c1`: 159 to 160 °C; for `CN(C)CCCN(c1ccccc1)c1ncccc1NC(=O)c1ccccc1[N+](=O)[O-]`: 134 to 136 °C; for `CCOC(=O)C1=Cc2cc(C(F)F)ccc2OC1C(F)(F)F` (centres undefined): 135 to 136 °C. The same measure for `CC1(C)C=C(CS(=O)(=O)c2ccccc2)C(C)(C)CC1`: 48 to 50 °C.

`CCOCc1nc2c(N)nc3ccc(OCc4ccccc4)cc3c2n1CC(C)(C)NC(=O)C1CCCCC1` gave a melting point of 90 °C.

In the case of `CC(C)(C)OC(=O)C(Nc1ccccc1)c1ccccc1Cl` (racemic), the melting point is 74 °C. The same measure for `Cc1ccc(Br)c(S(=O)O)c1`: 120 to 122 °C. The same measure for `C=C(c1ccccc1)[C@@H](C)[C@H](NC(=O)C(F)(F)F)C(=O)O`: 108 °C. Under `Cc1nc2c3c(c(C(=O)NCC(C)O)cc2n1C)CCC1(Cc2ccccc2C1)N3` (centres undefined) stands 224 to 225 °C. The compound `CN1CCC(c2c[nH]c3ccc(NC(=O)c4cccnc4)nc23)CC1` returned a melting point of 136 to 137 °C. Under `COc1cccc2c1nc(C(F)F)n2-c1nc(N2CCOCC2)nc(N2CCC(NC(=O)CCl)CC2)n1` stands 252 to 254 °C; under `CN(C(=O)N1CCN(C[C@@]2(C)Cn3cc([N+](=O)[O-])nc3O2)CC1)c1ccc(C(F)(F)F)cc1`, 100 to 102 °C. Consider `CC(Cc1c[nH]c2ccc(N)cc12)[N+](=O)[O-]` (centres undefined), for which the melting point was in the range of 120 to 122 °C. Under `CSC1=NCCc2nc(C)nn21` stands 75.5 to 76.5 °C.

Regarding `C[C@@H]1CN(c2c(F)c(N)c3c(=O)c(C(=O)O)cn(C4CC4)c3c2F)C[C@H](C)N1`, the melting point was 258 to 260 °C. The same measure for `CCCCc1oc2ccccc2c1-c1ncc(-c2ccc3cc(O)ccc3c2)o1`: 184 to 186 °C; for `CCN1C(=O)Nc2ccc(Cl)cc2C1(O)c1ccccc1` (centres undefined): 182 to 184 °C; for `O=C1CCc2c(-c3ccncc3)sc(-c3ccc(C(F)(F)F)cc3)c21`: 158 to 160 °C. The same measure for `COc1ccc(-c2cnn3c(N)c(-c4cccc(Cl)c4)c(CF)nc23)cc1OC`: 228 to 230 °C; for `CC1(C)CC(OC(=O)c2ccccc2)CC(C)(C)N1OC(N)=O`: 148 to 149 °C; for `CCOC(=O)c1cn(-c2ccc(OC)cc2F)c2cc(F)c(F)cc2c1=O`: 170 to 171 °C.

The compound `CCCCc1nc2c(N)nc3ccccc3c2n1CCCC(=NO)c1ccccc1` came in with a melting point of 242 to 244 °C. For the compound `O=Cc1cccc(OCc2nc(-c3ccccc3)c(-c3ccccc3)o2)c1`, the melting point was 72 to 75 °C. The same measure for `Cc1c(N2CCCCC2)ccnc1CSc1nc2cc(N3CCCCC3)c(F)cc2[nH]1`: 161 to 162 °C; for `NC(CCNc1ccccc1)=NO`: 91 to 91.5 °C. Under `COC(=O)N1CCC(=C2c3ccccc3CCc3cccnc32)CC1` stands 116 to 118 °C; under `Nc1nc2c(s1)CC(N1CCN(c3ccccn3)CC1)CC2` (single isomer, unassigned; (-)), 230 to 232 °C. `CC(CCCc1ccccc1)Oc1cc(O)c2c(c1)CC(C)(C)CC2CC(N)=O` (centres undefined) yielded a melting point of 67 to 72 °C. Under `Brc1ccc(Cn2cnc3ccccc32)cc1` stands 93 to 95 °C. Under `Fc1ccc(-n2ccc3cc(-c4cccnc4)ccc32)cc1` stands 108 to 110 °C; under `Cc1ccc(NC(=O)C#Cc2ccccc2)cc1`, 139 to 141 °C; under `CC1CC(=O)CCC1c1ccccc1` (centres undefined), 71.5 to 72.5 °C. The same measure for `O=C1CSC(=S)N1N=c1sc2ccc(C(F)(F)F)cc2s1`: 285 to 288 °C; for `N#Cc1cccc(-c2nc(=O)c3ccccc3s2)c1`: 200 °C. As to `O=C1C(=Cc2ccc(Cl)cc2)CCCC1=Cc1ccc(Cl)cc1`, the melting point was 142 to 144 °C.

`COC(=O)CC(=O)Nc1ccc(C2=NNC(=O)CC2C)cc1` (centres undefined) had a melting point of 228 to 230 °C. Under `Oc1ccc2cc(-c3csc(-c4ccccc4)n3)ccc2c1Br` stands 176 to 183 °C. Under `Cc1cc(CC(=O)c2ccccc2)on1` stands 73 to 74 °C; under `CCOC(=O)C=C(C)c1ccc(C=CC=C(C)CCC=C(C)C)cc1`, 32 to 32.5 °C; under `Oc1ccc(CNc2ncncc2Cl)cc1`, 190 to 191 °C. Under `O=[N+]([O-])c1ccc(OC[C@@H]2CCCN2c2ccc3ccccc3n2)cc1` stands 118 to 120 °C; under `C=NOCc1ccc(CCc2csc(NC(C)=O)n2)cc1`, 136 to 137 °C; under `COC(=O)C(NS(=O)(=O)c1ccc(-c2ccc(NC(=O)c3oc4cccc(C5COC(C)(C)O5)c4c3C)cc2)cc1)C(C)C` (centres undefined), 192 to 194 °C. Consider `COc1cc2c(cc1S(=O)(=O)Cl)CCC2`, for which the melting point was in the range of 75 to 77 °C. Under `CCc1cccc2oc(C(=O)Nc3ccc(-c4ccc(S(=O)(=O)NC(C(=O)O)C(C)C)cc4)cc3)c(C)c12` (centres undefined) stands 239 to 241 °C; under `COCc1csc(C(=O)C2C(=O)N(C(N)=O)c3ccc(Cl)cc32)c1` (centres undefined), 193 to 195 °C; under `CCCCCCCCCCC#Cc1csc(CC(CO)NC(C)=O)c1` (centres undefined), 55 to 58 °C. With `Cc1cc(N)c([N+](=O)[O-])cc1NC(=O)OCCCl`, the melting point was 192 °C.

For the compound `CCCCCc1nc(C)c(C(=O)OCC)n1Cc1ccc2oc(-c3ccccc3-c3nnn[nH]3)c(Br)c2c1`, the melting point fell in the range of 103 to 104 °C. The same measure for `Nc1ccc(-n2c(-c3ccccc3)cc3c2CCCC3)cc1C(=O)O`: 206 °C; for `O=S(=O)(Cl)c1cc(Cl)c(Cl)c(S(=O)(=O)Cl)c1`: 114 to 115 °C. The same measure for `Nc1ccn(C2OC(CO)C(O)C2O)c(=O)c1F` (centres undefined): 234 to 236 °C; for `CCC1(C)NC(=O)c2ccccc2O1` (centres undefined): 76 to 78 °C.

Compound `C[Si](C)(C)CC(C#N)CC(=O)O` (centres undefined) gave a melting point of 39 to 41 °C. The same measure for `Cn1nnc(-c2ccc(C#CC3(O)CN4CCC3CC4)cc2)n1` (centres undefined): 228 to 230 °C. The same measure for `O=CNC1=CCc2ccccc21`: 87.5 to 88.5 °C. The same measure for `CCOC12CCC(=O)CC13CCN(C)C2Cc1ccc(OC)cc13` (centres undefined): 171 to 173 °C. `O=C(O)CCCC(=O)Nc1cccc(-c2nnc(-c3ccc(C(F)(F)F)cc3)nn2)c1` registered a melting point of 246 to 248 °C. Regarding `CCCCc1ncc(/C=C(\Cc2cccs2)C(N)=O)n1Cc1cccc(Cl)c1Cl`, the melting point was in the range of 185 to 187 °C.

Regarding `CCOCc1nc2c(N)nc3ccccc3c2n1CC1CCN(C)C(=O)O1` (centres undefined), the melting point lay within 192 to 194 °C. Under `CCCCOC(=O)c1cc(OC(=O)OC)c2c(c1)C(=O)c1cccc(OC(=O)OC)c1C2=O` stands 200 to 202 °C; under `COc1ccc(-c2ccc(C3C(CCC(O)c4ccc(F)cc4)C(=O)N3c3ccc(F)cc3)cc2)cc1` (centres undefined), 103 °C; under `COc1ccc(C(=O)Nc2ccccc2)c(CC2CCCCN2)c1` (centres undefined), 108 to 109 °C.

As a reminder, the melting point is the temperature of the solid-liquid transition.
